# Tested on: human maximum recommended daily dose, FDA database
# Test: DSSTox (FDAMDD) FDA Maximum (Recommended) Daily Dose Database
# Conditions: hits give low values
# Outline: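 MRDD values come from clinical trials with daily oral dosing, usually for 3–12 months, for the average adult, in mg/day converted to mg/kg-bw/day assuming 60 kg. Antineoplastic mg/m2 doses are divided by 37. Activity score maps log10(1/MRDD mmol) onto 1–100.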
# [1] = TherapeuticCategory: glucocorticoid
# [2] = TherapeuticCategory: cardiotonic
# [3] = TherapeuticCategory: antibacterial
# [4] = TherapeuticCategory: anticonvulsant
# [5] = TherapeuticCategory: diagnostic aid
smiles,measurement,setting,value
CS(=O)(=O)OCCCCOS(C)(=O)=O,maximum recommended daily dose (mmol/kg-bw/day),TherapeuticCategory: antineoplastic,0.00054
O=C(CCCN1CCC(O)(c2cccc(C(F)(F)F)c2)CC1)c1ccc(F)cc1,maximum recommended daily dose (mmol/kg-bw/day),TherapeuticCategory: antipsychotic,0.000325
CC(C)COCC(CN(Cc1ccccc1)c1ccccc1)N1CCCC1 (stereo not given),maximum recommended daily dose (mmol/kg-bw/day),TherapeuticCategory: antianginal,0.0182
CN(C)C(=O)CCCOC(=O)C(C)(C)Oc1ccc(Cl)cc1,maximum recommended daily dose (mmol/kg-bw/day),TherapeuticCategory: antihyperlipoproteinemic,0.137
CN(Cc1cc(Br)cc(Br)c1N)C1CCCCC1,maximum recommended daily dose (mmol/kg-bw/day),"TherapeuticCategory: expectorant, mucolytic",0.00213
CC(=O)OCC(=O)[C@@]1(O)CC[C@H]2[C@@H]3CCC4=CC(=O)CC[C@]4(C)[C@H]3C(=O)C[C@@]21C,maximum recommended daily dose (mmol/kg-bw/day),[1],0.0124
CC(=O)O[C@H]1C[C@H](O[C@H]2[C@@H](O)C[C@H](O[C@H]3[C@@H](O)C[C@H](O[C@H]4CC[C@@]5(C)[C@H](CC[C@@H]6[C@@H]5C[C@@H](O)[C@]5(C)[C@@H](C7=CC(=O)OC7)CC[C@]65O)C4)O[C@@H]3C)O[C@@H]2C)O[C@H](C)[C@H]1O[C@@H]1O[C@H](CO)[C@@H](O)[C@H](O)[C@H]1O,maximum recommended daily dose (mmol/kg-bw/day),[2],3.38e-05
OC(CCCN1CCCCC1)(c1ccccc1)c1ccccc1,maximum recommended daily dose (mmol/kg-bw/day),TherapeuticCategory: antiemetic,0.0162
CC[C@@H](CO)NCCN[C@@H](CC)CO,maximum recommended daily dose (mmol/kg-bw/day),[3],0.122
CC(CC(C)(C)O)OC(O)C(Cl)(Cl)Cl (stereo not given),maximum recommended daily dose (mmol/kg-bw/day),TherapeuticCategory: hypnotic,0.101
COC1=C(C(=O)O)N2C(=O)[C@@H](NC(=O)[C@H](N)C3=CCC=CC3)[C@H]2SC1,maximum recommended daily dose (mmol/kg-bw/day),[3],0.0911
CN1C(=O)CN=C(c2ccccc2)c2cc([N+](=O)[O-])ccc21,maximum recommended daily dose (mmol/kg-bw/day),"TherapeuticCategory: anticonvulsant, skeletal muscle relaxant",0.000282
CCc1cc(C(N)=S)ccn1,maximum recommended daily dose (mmol/kg-bw/day),[3],0.1
CC(=O)O[C@H]1C[C@H](O[C@H]2[C@@H](O)C[C@H](O[C@H]3[C@@H](O)C[C@H](O[C@H]4CC[C@@]5(C)[C@H](CC[C@@H]6[C@@H]5CC[C@]5(C)[C@@H](C7=CC(=O)OC7)CC[C@]65O)C4)O[C@@H]3C)O[C@@H]2C)O[C@H](C)[C@H]1O,maximum recommended daily dose (mmol/kg-bw/day),[2],4.13e-06
CN(C)CC/C=C1/c2ccccc2COc2ccccc21,maximum recommended daily dose (mmol/kg-bw/day),TherapeuticCategory: antidepressant,0.0179
NC(=O)N1c2ccccc2C=Cc2ccccc21,maximum recommended daily dose (mmol/kg-bw/day),"TherapeuticCategory: analgesic, anticonvulsant",0.113
CC[C@@H](C(N)=O)N1CCCC1=O,maximum recommended daily dose (mmol/kg-bw/day),[4],0.353
CC1CCCC(C)N1NC(=O)c1ccc(Cl)c(S(N)(=O)=O)c1 (stereo not given),maximum recommended daily dose (mmol/kg-bw/day),"TherapeuticCategory: antihypertensive, diuretic",0.00289
CCC(=O)O[C@]1(C(=O)COC(C)=O)CC[C@H]2[C@@H]3C[C@H](C)C4=CC(=O)C=C[C@]4(C)[C@H]3[C@@H](O)C[C@@]21C,maximum recommended daily dose (mmol/kg-bw/day),[1],0.00882
Cc1cc(C(=O)NCCc2ccc(S(=O)(=O)NC(=O)NN3CCCCCC3)cc2)no1,maximum recommended daily dose (mmol/kg-bw/day),TherapeuticCategory: antidiabetic,0.000594
CCOC(=O)c1ncn2c1CN(C)C(=O)c1cc(F)ccc1-2,maximum recommended daily dose (mmol/kg-bw/day),TherapeuticCategory: benzodiazepine antagonist,0.000165
CN1C(CCl)Nc2cc(Cl)c(S(N)(=O)=O)cc2S1(=O)=O (stereo not given),maximum recommended daily dose (mmol/kg-bw/day),"TherapeuticCategory: diuretic, antihypertensive",0.000464
CCCCC[C@H](O)/C=C/[C@H]1[C@H](O)CC(=O)[C@@H]1CCCCCCC(=O)O,maximum recommended daily dose (mmol/kg-bw/day),TherapeuticCategory: vasodilator,2.82e-07
C=CC[N+]1([C@H]2C[C@H]3[C@@H]4CC[C@H]5C[C@H](O)[C@@H](N6CCOCC6)C[C@]5(C)[C@H]4CC[C@]3(C)[C@H]2OC(C)=O)CCCC1,maximum recommended daily dose (mmol/kg-bw/day),"TherapeuticCategory: skeletal muscle relaxant, neuromuscular blocker",0.00197
CCC1(C)OC(=O)N(C)C1=O (stereo not given),maximum recommended daily dose (mmol/kg-bw/day),[4],0.255
CC(C)(C(=O)c1cccnc1)c1cccnc1,maximum recommended daily dose (mmol/kg-bw/day),[5],0.331
CN1CCC[C@@H]1CCO[C@](C)(c1ccccc1)c1ccc(Cl)cc1,maximum recommended daily dose (mmol/kg-bw/day),TherapeuticCategory: antihistaminic,0.00039
CN(C)C=Nc1c(I)cc(I)c(CCC(=O)O)c1I,maximum recommended daily dose (mmol/kg-bw/day),[5],0.167
CC(C)Nc1cccnc1N1CCN(C(=O)c2cc3cc(NS(C)(=O)=O)ccc3[nH]2)CC1,maximum recommended daily dose (mmol/kg-bw/day),TherapeuticCategory: antiviral,0.0146
NC(=O)CC[C@H](N)C(=O)O,maximum recommended daily dose (mmol/kg-bw/day),TherapeuticCategory: none,1.37
CC(=O)Oc1ccc(C2(c3ccc(OC(C)=O)cc3)C(=O)Nc3ccccc32)cc1,maximum recommended daily dose (mmol/kg-bw/day),TherapeuticCategory: cathartic,0.00208
CC(C)=CCC1C(=O)N(c2ccccc2)N(c2ccccc2)C1=O,maximum recommended daily dose (mmol/kg-bw/day),TherapeuticCategory: anti inflammatory,0.039
COc1ccc(OC)c(C(O)CNC(=O)CN)c1 (stereo not given),maximum recommended daily dose (mmol/kg-bw/day),"TherapeuticCategory: adrenergic, antihypotensive",0.000983
NC[C@H]1O[C@H](O[C@H]2[C@H](O)[C@@H](O[C@H]3O[C@H](CO)[C@@H](O)[C@H](N)[C@H]3O)[C@H](N)C[C@@H]2N)[C@H](N)C[C@@H]1O,maximum recommended daily dose (mmol/kg-bw/day),[3],0.0193
Nc1cc(-c2ccncc2)c[nH]c1=O,maximum recommended daily dose (mmol/kg-bw/day),[2],0.00401
